Reference: patent publication US6713506B2, “Tea polyphenol esters and analogs thereof for cancer prevention and treatment” (University of South Florida, priority 2000, dated 2004)
“Also recorded” adds a separate entry of the source.

Target: T1, chymotrypsin-like activity in living breast (MCF7) cancer cells (Homo sapiens, UniProt P28074)
T1 construct: endogenous in cells; host or cells: MCF7 cells (intact)
Test: Proteasome chymotrypsin-like activity in living MCF7 cells
Type: cell-based
Protocol: FIG. 16(A) The fluorogenic calpain I peptide substrate Suc-Leu-Tyr-AMC (S; 40 μM) is incubated with either a purified calpain I (P; 3 μg) or buffer (Buff) at 30° C. for 30 min with or without 10 μM calpeptin, EGCG or EGC, followed by measuring AMCs (the product), as described in the text. (B) T1 or T2 cells are treated with LLL at either 10 (A-C) or 50 μM (D, E), followed by Western blotting with indicated antibodies.(C) MCF-7 cells, pre-incubated with EGCG at an indicated concentration for 12 h, are incubation for additional 12 h with 20 μM Suc-Leu-Leu-Val-Tyr-AMC (the peptide substrate for the proteasomal chymotryptic activity), followed by measurement of AMCs in medium (as described in the grant and the manuscript). (D) Cell cycle-dependent p27 degradation. PCI-13 head and neck tumor cells are treated with aphidicolin (5 μg/ml) for 24 h (0 h), followed by release for up to 24 h. […]
(b) The peptide substrate for the proteasomal chymotrypsin-like activity, Suc-Leu-Leu-Val-Tyr-AMC, is used to measure the proteasome activity in intact Jurkat, MCF-7 and PC-3 cells, which is inhibitable by co-incubation with EGCG (FIG. 16C). […] After that, medium is collected and the liberated AMCs in the medium are measured by fluorometer to measure in vivo potency and selectivity of tea polyphenols.

Q: With `O=C(O[C@@H]1Cc2c(O)cc(O)cc2O[C@@H]1c1cc(O)c(O)c(O)c1)c1cc(O)c(O)c(O)c1` [EGCG, (−)-epigallocatechin-3-gallate] as the molecule, how does the “inhibition of chymotrypsin-like activity in living MCF7 cells (in words)” value read?
A: inhibitable; also recorded: inhibits
